Values of other authors as cited in patent US20100317740A1, “Method for Predicting Response to Tamoxifen” (GEORGE MASON INTELLECTUAL PROPERTIES, INC., priority 2007, published 2010).

System: node negative breast cancer with estrogen receptor on tumors
Conditions: women with node negative breast cancer and estrogen receptor on their tumors

## CC/C(=C(\c1ccccc1)c1ccc(OCCN(C)C)cc1)c1ccccc1 [Tamoxifen]
  eligible women who do not respond to Tamoxifen therapy: 30-40%
